# Test results: patent US20250327028A1, “ENGINEERED PLATELETS AS TARGETED PROTEIN DEGRADERS” (Wisconsin Alumni Research Foundation, priority 2024, published 2025)
# Key:
# BRD4 = molecular target: T1, BRD4 (Homo sapiens, UniProt O60885); experiment: Immunoblot analysis of BRD4 degradation in WT MDA-MB-231 cells after free HAC treatment; assay type: cell-based
# T1 construct: endogenous in cells; host or cells: WT MDA-MB-231 (ATCC)
# From the text: Immunoblot analysis: Immunoblot analysis was used to evaluate the expression of BRD4, HSP90, HSP90a, and PD-L1 in 4T1, WT MDA-MB-231, HSP90α-KO MDA-MB-231 or PEA-10 cells after various treatments and also served as the detection method for IP or co-IP experiments. The procedures for preparing IP or co-IP samples were indicated in the relevant experimental parts.
# Sample preparation for various cancer cells after free HAC treatment: Various cells, including 4T1, WT MDA-MB-231, HSP90α-KO MDA-MB-231, or PEA-10 cells, were seeded in 6-well culture plates with a density of 5×10^4 cells in each well and cultured for 24 h. Then, if HAI pretreatment was performed, the cells were incubated in the HAI-containing blank medium at different concentrations for 2 h and washed with PBS twice before the following treatments. The medium in the corresponding wells was replaced with 1 mL of blank medium containing the DMSO vehicle, HACs, or the combinations of various free ligands at the predetermined concentrations. After incubation for the indicated time points, cells were washed with PBS and lysed on ice with the relevant lysis buffer containing PMSF (1 mM) and the phosphatase inhibitor cocktail for 30 min. As for the conditioned medium (CM), the culturing complete medium of the corresponding cancer cells in each well was collected after 24-h incubation and subjected to centrifugation at 2000 rpm for 5 min to obtain the supernatant. The filtrate of the supernatants was collected following filtration over a 0.45 μm filter, serving as the CM. […]
# General procedures for immunoblot analysis: After a 30-min lysis, the lysates were centrifuged at 10,000 g for 10 minutes at 4° C., and the corresponding supernatants were collected, followed by quantification of the total proteins in the supernatant through the BCA assay. […] Finally, the bands were treated with electrochemiluminescence (ECL) western blot substrate, detected by the iBright™ imaging system and quantified with ImageJ software. […]
# 4T1-Luc tumors = experiment: Treatment efficacy in post-surgery BALB/c mice with orthotopic 4T1-Luc breast cancer; assay type: in vivo; settings: 2×10^8 platelets i.v. or free HAC 5 mg/kg i.p., every third day for 4 times
# From the text: Evaluation of treatment efficacy and biosafety in post-surgical 4T1 tumor-bearing mice: Post-surgery BALB/c mice with orthotopic 4T1-Luc-breast cancer were used to evaluate the tumor recurrence, metastasis, and biosafety profiles after iDePLT or eDePLT treatments. The treatment efficacy of iDePLT was also studied in the post-surgery NSG mice with orthotopic patient-derived xenografts (PDX) breast cancer.
# Establishment of post-surgery models with BALB/c mice: 1×10^6 4T1-Luc cells were suspended in a PBS containing 50% Matrigel® (Corning®/354234). Female 8-week-old BALB/c mice were anesthetized and injected with 50 μL of the cell suspensions into the fourth mammary gland fat pads. After the tumor volumes reached about 100-200 mm^3, the tumor-bearing mice were anesthetized and placed under the microscope, followed by surgical resection to totally remove the visible tumor tissues. Following wound closure, the post-surgery mice were randomly assigned to different treatment groups.
# Evaluation of treatment efficacy and biosafety in post-surgery BALB/c mice: As for the treatments with platelets, the platelets were freshly isolated from the healthy female BALB/c mice and suspended in PBS for intravenous (i.v.) injection after the necessary engineering. The free iHAC and eHAC were intraperitoneally (i.p.) injected after dispersing in the formulation of 10% DMSO, 40% polyethylene glycol 300 (PEG300), 5% Tween TM-80, and 45% saline. From the same day after surgery, the mice were anesthetized and i.p. injected with D-luciferin potassium salt (150 mg/kg) in 100 μL in PBS. The bioluminescence of post-surgery mice in each group was detected by Perkin Elmer IVIS every five days from the day of surgery, and intensity was analyzed by Living Image Software v.4.3.1. […] During the treatment course, the body weight of each post-surgery mouse was monitored daily. […]
compound,measurement,setting,value
"Cc1sc2c(c1C)C(c1ccc(Cl)cc1)=N[C@@H](CC(=O)NCc1cn(CCCC(=O)N(CC#N)S(=O)(=O)c3ccc(C(=O)NCCCn4c(Sc5cc6c(cc5I)OCO6)nc5c(N)ncnc54)cc3)nn1)c1nnc(C)n1-2 [iHAC, (S)—N-(3-(6-amino-8-((6-iodobenzo[d][1,3]dioxol-5-yl)thio)-9H-purin-9-yl)propyl)-4-(N-(4-(4-((2-(4-(4-chlorophenyl)-2,3,9-trimethyl-6H-thieno[3,2-f][1,2,4]triazolo[4,3-a][1,4]diazepin-6-yl)acetamido)methyl)-1H-1,2,3-triazol-1-yl)butanoyl)-N-(cyanomethyl)sulfamoyl)benzamide]",shape of concentration response of BRD4 degradation,"BRD4; at relatively lower concentrations, reversed at 20 μM",hook effect
same,time dependence of BRD4 downregulation,BRD4; at the two effective concentrations,in a time-dependent manner
same,lung metastasis (bioluminescence),4T1-Luc tumors,started to exhibit obvious lung metastasis from day 15 after surgery
same,tumor recurrence at the surgical site (bioluminescence),4T1-Luc tumors,"showed some anti-relapse effect during the dosing time, but the mice finally showed substantially recurrent tumors on day 20"
